The results in this text go back to patent publication US20180064665A1 (UNIVERSITY-INDUSTRY COOPERATION GROUP OF KYUNG HEE …, priority 2015, published 2018).

One data set deals with Raw264.7 cells. Kind of data set: Measurement of cell viability (MTT). The data set is classed as cell-based, mouse. Conditions: with LPS 1 μg/mL, 24 hrs, mean of three measurements, read-out: Cell viability (IC50 for cell toxicity). The protocol: Raw264.7 cells (macrophage cell line from mouse) were obtained from Korean Cell Line Bank (KCLB) and cultured in Dulbecco's modified Eagle's medium containing 10% FBS, penicillin (100 units/ml), streptomycin sulfate (100 μg/ml) at 37° C. and 5% CO2 in humidified environment.
Cells were collected by centrifugation and scraping, and seeded at 1×10^5 cells/well in a 96 well plate containing 100 μl of RPMI 1640 medium with 10% FBS. 3β, 4β-epoxy-8α-isobutyryloxyguaia-1(10), 11, (13)-diene-12.6α-olide was dissolved in dimethylsulfoxide (DMSO) solvent and the concentration of DMSO was not more than 0.1% in all experiments. Next day, test compounds and LPS (1 μg/mL) were added and the plate were cultured for 24 hrs. After washing cells once, 50 μl of the medium containing 5 mg/ml MTT but without FBS was added and cells were cultured at 37° C. for 4 hrs. And then, the medium was removed, formazan blue formed in the cells was dissolved in 100 μl of DMSO, and an absorbance was measured at 540 nm to obtain IC50 values for cell toxicity. […] The results are shown in the above Table 1 and the values are means of three measurements.

The subject of another data set is PGE2 production. Description: Inhibitory activity on PGE2 production in LPS-treated Raw264.7 cells (PGE2 immunoassay). The format is cell-based, mouse. Conditions: LPS 1 μg/mL; for IC50: mean of three measurements, read-out: Inhibition of PGE2 production IC50. As for the experimental part:
Raw264.7 cells (macrophage cell line from mouse) were obtained from Korean Cell Line Bank (KCLB) and cultured in Dulbecco's modified Eagle's medium (DMEM) containing 10% Fetal Bovine Serum (FBS), penicillin (100 units/mL), streptomycin sulfate (100 μg/mL) at 37° C. and 5% CO2 in humidified environment. RAW264.7 cells at 5×10^5 cells/mL were seeded at 1 mL/well in 24 wells using DMEM, left overnight, replaced with a fresh medium and then treated with a test compound of an appropriate concentration. The cells were incubated for 1 hr and then treated with LPS at 1 μg/mL and incubated for 24 hrs (or proper period). A supernatant was taken and diluted five times. 150 μL of an analysis buffer was added to Non Specific Binding (NSB) well, and 100 μL of an analysis buffer was added to zero point standard (B0) well. 100 μL of a standard sample was added to the other wells and 50 μL of PGE2 conjugate was added (excluding NSB). 50 μL of PGE2 antibody solution was added and wells were shaken for 2 hrs. Each well was suctioned and washed with a wash buffer five times. Each 200 μL of para-Nitrophenyl phosphate (pNPP) substrate was added to the all wells and the wells were stored in a bench at room temperature for 1 hr. 50 μL of stop solution was added and an absorbance was measured at 405 nm. The amount of PGE2 was quantified using the measured absorbance and a standard curve and compared to a group treated with LPS only to obtain a concentration inhibiting 50% (IC50). The results are shown in the following Table 1 and the presented values are means of three measurements.

Take `Cc1ccc(OC(=O)NN(c2ccccc2)S(=O)(=O)c2ccc(C)cc2)cc1` [Example 2, N-phenyl-N′-(4-methylphenoxycarbonyl)-4-methylphenylsulfonhydrazide]: the IC50 (commonly the concentration that gives 50% inhibition) was above 10000 nM in the data set on Raw264.7 cells and 1010 nM in the data set with PGE2 production. In the data set on PGE2 production (compound at 1 μM), the “Inhibition of PGE2 production %” value is reported as 49.7 (1)^ %.
For the compound `COc1ccccc1OC(=O)NN(c1ccccc1)S(=O)(=O)c1ccc(C)cc1` [Example 3, N-phenyl-N′-(2-methoxyphenoxycarbonyl)-4-methylphenylsulfonhydrazide], the values for the IC50 with Raw264.7 cells and in the data set on PGE2 production were above 100 nM and 34 nM, respectively. In the data set on PGE2 production (compound at 0.1 μM), the “Inhibition of PGE2 production %” value was 91.9 (0.1) %.
As for `COc1ccc(S(=O)(=O)N(NC(=O)Oc2ccc(OCc3ccccc3)cc2)c2ccccc2)cc1` [Example 4, N-phenyl-N′-(4-benzyloxyphenoxycarbonyl)-4-methoxyphenylsulfonhydrazide], the IC50 in the data set on Raw264.7 cells was above 1000 nM; in the data set on PGE2 production, 50 nM. In the data set with PGE2 production (compound at 0.1 μM), the “Inhibition of PGE2 production %” value is listed as 62.8 (0.1) %.
Consider `CCOc1ccc(OC(=O)NN(c2ccccc2)S(=O)(=O)c2ccc(OC)cc2)cc1` [Example 5, N-phenyl-N′-(4-ethoxyphenoxycarbonyl)-4-methoxyphenylsulfonhydrazide], for which the values for the IC50 with Raw264.7 cells and in the data set on PGE2 production were above 100 nM and 20.5 nM, respectively. Moreover, the “Inhibition of PGE2 production %” value with PGE2 production (compound at 0.1 μM) was 94.1 (0.1) %.
As to `COc1ccc(S(=O)(=O)N(NC(=O)Oc2ccc(Oc3ccccc3)cc2)c2ccccc2)cc1` [Example 6, N-phenyl-N′-(4-phenoxyphenoxycarbonyl)-4-methoxyphenylsulfonhydrazide], the values for the IC50 with Raw264.7 cells and with PGE2 production were above 100 nM and 17.1 nM, respectively. In addition, in the data set with PGE2 production (compound at 0.1 μM), the “Inhibition of PGE2 production %” value is 93.4 (0.1) %.
On to `CCc1ccc(OC(=O)NN(c2ccccc2)S(=O)(=O)c2ccc(OC)cc2)cc1` [Example 7, N-phenyl-N′-(4-ethylphenoxycarbonyl)-4-methoxyphenylsulfonhydrazide], for which the results for the IC50 in the data set with Raw264.7 cells and in the data set on PGE2 production were above 100 nM and 28.5 nM, respectively. Further, the “Inhibition of PGE2 production %” value in the data set with PGE2 production (compound at 0.1 μM) is given as 90.9 (0.1) %.
In the case of `Cc1ccc(S(=O)(=O)N(NC(=O)Oc2ccc(OCc3ccccc3)cc2)c2ccccc2)cc1` [Example 8, N-phenyl-N′-(4-benzyloxyphenoxycarbonyl)-4-methylphenylsulfonhydrazide], the IC50 is above 100 nM with Raw264.7 cells and 32.6 nM with PGE2 production. Further, the “Inhibition of PGE2 production %” value with PGE2 production (compound at 0.1 μM) is given as 66.6 (0.1) %.
As to `COc1ccc(S(=O)(=O)N(NC(=O)Oc2ccc3c(c2)CCC3)c2ccccc2)cc1` [Example 9, N-phenyl-N′-(2,3-dihydro-1H-inden-5-oxycarbonyl)-4-methoxyphenylsulfonhydrazide], the IC50 in the data set with Raw264.7 cells was above 100 nM; in the data set with PGE2 production, 4.5 nM. Also, the “Inhibition of PGE2 production %” value in the data set on PGE2 production (compound at 0.01 μM) is reported as 79.5 (0.01) %.
For the compound `O=C(NN(c1ccccc1)S(=O)(=O)c1ccc(Cl)cc1)Oc1ccccc1` [Example 10, N-phenyl-N′-phenoxycarbonyl-4-chlorophenylsulfonhydrazide], the IC50 is above 10000 nM in the data set with Raw264.7 cells and 5.42 nM in the data set with PGE2 production. Further, the “Inhibition of PGE2 production %” value in the data set on PGE2 production (compound at 0.01 μM) is 81.8 (0.01) %.
In the case of `COc1ccccc1OC(=O)NN(c1ccccc1)S(=O)(=O)c1ccc(Cl)cc1` [Example 11, N-phenyl-N′-(2-methoxyphenoxycarbonyl)-4-chlorophenylsulfonhydrazide], the IC50 is above 10000 nM in the data set on Raw264.7 cells and 3.52 nM with PGE2 production. Also, the “Inhibition of PGE2 production %” value in the data set on PGE2 production (compound at 0.01 μM) is given as 85.9 (0.01) %.
Turning to `CCc1ccc(OC(=O)NN(c2ccccc2)S(=O)(=O)c2ccc(Cl)cc2)cc1` [Example 12, N-phenyl-N′-(4-ethylphenoxycarbonyl)-4-chlorophenylsulfonhydrazide], the IC50 in the data set with Raw264.7 cells is above 10000 nM; with PGE2 production it was 3.7 nM. Besides, in the data set on PGE2 production (compound at 0.01 μM), the “Inhibition of PGE2 production %” value is 80.5 (0.01) %.
On the same counts, the results for `CCOc1ccc(OC(=O)NN(c2ccccc2)S(=O)(=O)c2ccc(Cl)cc2)cc1` [Example 13, N-phenyl-N′-(4-ethoxyphenoxycarbonyl)-4-chlorophenylsulfonhydrazide] are above 10000 nM, 5.02 nM and 74.8 (0.01) %.
With `O=C(NN(c1ccccc1)S(=O)(=O)c1ccc(Cl)cc1)Oc1ccc(Oc2ccccc2)cc1` [Example 14, N-phenyl-N′-(4-phenoxyphenoxycarbonyl)-4-chlorophenylsulfonhydrazide], the IC50 with Raw264.7 cells is above 10000 nM; with PGE2 production, 5.09 nM. The “Inhibition of PGE2 production %” value in the data set on PGE2 production (compound at 0.01 μM) is reported as 67.8 (0.01) %.
On to `O=C(NN(c1ccccc1)S(=O)(=O)c1ccc(Cl)cc1)Oc1ccc(OCc2ccccc2)cc1` [Example 15, N-phenyl-N′-(4-benzyloxyphenoxycarbonyl)-4-chlorophenylsulfonhydrazide], for which the IC50 in the data set on Raw264.7 cells was above 10000 nM; in the data set on PGE2 production, 3.42 nM. The “Inhibition of PGE2 production %” value in the data set on PGE2 production (compound at 0.01 μM) was 84.5 (0.01) %.
`CCCc1ccc(S(=O)(=O)N(NC(=O)Oc2ccc(Oc3ccccc3)cc2)c2ccccc2)cc1` [Example 20, N-phenyl-N′-(4-phenoxyphenoxycarbonyl)-4-n-propylphenylsulfonhydrazide]: the values for the IC50 in the data set with Raw264.7 cells and with PGE2 production were above 10000 nM and 134 nM, respectively. Also, in the data set on PGE2 production (compound at 0.1 μM), the “Inhibition of PGE2 production %” value was 45.4 (0.1) %.
With `O=C(NN(c1ccccc1)S(=O)(=O)c1ccc(C(F)(F)F)cc1)Oc1ccc(OCc2ccccc2)cc1` [Example 21, N-phenyl-N′-(4-benzyloxyphenoxycarbonyl)-4-trifluoromethylphenylsulfonhydrazide], the IC50 with Raw264.7 cells was above 100 nM; with PGE2 production, 47.1 nM. In the data set on PGE2 production (compound at 0.1 μM), the “Inhibition of PGE2 production %” value is reported as 65.5 (0.1) %.
Take `CC(C)(C)c1ccc(S(=O)(=O)N(NC(=O)Oc2ccc(OCc3ccccc3)cc2)c2ccccc2)cc1` [Example 22, N-phenyl-N′-(4-benzyloxyphenoxycarbonyl)-4-t-butylphenylsulfonhydrazide]: the IC50 with Raw264.7 cells was above 100 nM; in the data set with PGE2 production, 56.9 nM. Moreover, the “Inhibition of PGE2 production %” value with PGE2 production (compound at 0.1 μM) is given as 69.8 (0.1) %.
`CC(C)(C)c1ccc(S(=O)(=O)N(NC(=O)Oc2ccc(Oc3ccccc3)cc2)c2ccccc2)cc1` [Example 23, N-phenyl-N′-(4-phenoxyphenoxycarbonyl)-4-t-butylphenylsulfonhydrazide]: the IC50 in the data set with Raw264.7 cells is above 1000 nM; with PGE2 production, 99.6 nM. The “Inhibition of PGE2 production %” value in the data set with PGE2 production (compound at 0.1 μM) is 67.9 (0.1) %.
For `CC(C)c1ccc(S(=O)(=O)N(NC(=O)Oc2ccc(Oc3ccccc3)cc2)c2ccccc2)cc1` [Example 24, N-phenyl-N′-(4-phenoxyphenoxycarbonyl)-4-i-propylphenylsulfonhydrazide], the IC50 was above 1000 nM in the data set on Raw264.7 cells and 130 nM in the data set with PGE2 production. Also, in the data set with PGE2 production (compound at 0.1 μM), the “Inhibition of PGE2 production %” value is on record as 65.4 (0.1) %.
On the same counts, the results for `Cc1ccc(S(=O)(=O)N(NC(=O)Oc2ccc3c(c2)CCC3)c2ccccc2)cc1` [Example 25, N-phenyl-N′-(2,3-dihydro-1H-inden-5-oxycarbonyl)-4-methylphenylsulfonhydrazide] are above 1000 nM, 66.7 nM and 40.4 (0.1) %.
On to `O=C(NN(c1ccccc1)S(=O)(=O)c1ccc(Cl)cc1)Oc1ccc2c(c1)CCC2` [Example 26, N-phenyl-N′-(2,3-dihydro-1H-inden-5-oxycarbonyl)-4-chlorophenylsulfonhydrazide], for which the values for the IC50 with Raw264.7 cells and with PGE2 production were above 1000 nM and 70.5 nM, respectively. The “Inhibition of PGE2 production %” value with PGE2 production (compound at 0.1 μM) is listed as 45.8 (0.1) %.
Turning to `O=C(NN(c1ccccc1)S(=O)(=O)c1ccc(C(F)(F)F)cc1)Oc1ccc2c(c1)CCC2` [Example 27, N-phenyl-N′-(2,3-dihydro-1H-inden-5-oxycarbonyl)-4-trifluorophenylsulfonhydrazide], the IC50 in the data set on Raw264.7 cells is above 1000 nM; in the data set on PGE2 production, 55.8 nM. For the same compound, the “Inhibition of PGE2 production %” value in the data set with PGE2 production (compound at 0.1 μM) is on record as 51.1 (0.1) %.
For “N-phenyl-N′-(4-benzyloxyphenoxycarbonyl)-2-mesitylenesulfonhydrazide [Example 17]”, the IC50 was above 1000 nM in the data set with Raw264.7 cells and 81.5 nM in the data set on PGE2 production. The “Inhibition of PGE2 production %” value with PGE2 production (compound at 0.1 μM) is recorded as 60.0 (0.1) %.
On the same counts, the results for “N-phenyl-N′-(4-phenoxyphenoxycarbonyl)-2-mesitylenesulfonhydrazide [Example 16]” are above 1000 nM, 177 nM and 39.8 (0.1) %.
